Assays:
[1] = Nucleic acid encapsulation in SNALP, RiboGreen fluorescence assay; format: physicochemical; conditions: SNALP DSPC:Chol:PEG-C-DMA:Cationic Lipid 20:48:2:30 molar percent, siRNA; mean of 3 experiments, error is standard deviation
Method: (§1) SNALP Preparation: SNALP with a lipid composition of DSPC:Chol:PEG-C-DMA:Cationic Lipid (20:48:2:30 molar percent) were prepared using the spontaneous vesicle formation by ethanol dilution method [Jeffs et al., Pharm. Res. In Press (2005)]. The sample's were diafiltered against 100 mL of PBS (20 wash volumes) using a cross flow ultrafiltration cartridge (Amersham Biosciences, Piscataway, N.J.) and sterile filtered through Acrodisc 0.2 μm Posidyne filters (Pall Corp., Ann Arbor, Mich.). The siRNA concentration of final samples was determined using the RiboGreen assay and a siRNA standard curve. Particle size and polydispersity was determined using a Malvern Instruments Zetasizer 3000HSA (Malvern, UK). Nucleic acid encapsulation was determined using a RiboGreen assay, comparing fluorescence in the presence and absence of Triton X-100. RiboGreen fluorescence was measured using a Varian Eclipse Spectrofluorometer (Varian Inc) with λex=500 nm, λem=525 nm.
(§2) This example sets forth the physical properties of the SNALP formulations described herein. SNALP containing the various cationic lipids were prepared as described and encapsulated RNA and particle size assessed (Table 1 below). […] Polydispersity of all formulations was low, indicating a narrow distribution of particle size. RNA encapsulation in the final particles was 84-85% of the total.
(§3) Percentage Encapsulation was determined using the RiboGreen fluorescence assay to measure the amount of encapsulated nucleic acid relative to the total nucleic acid present. Particle diameter and polydispersity was measured using a Malvern Zetasizer. Values are the mean of 3 separate experiments, the error is standard deviation.

[2] = SNALP particle diameter and polydispersity, Malvern Zetasizer; format: physicochemical; conditions: SNALP DSPC:Chol:PEG-C-DMA:Cationic Lipid 20:48:2:30 molar percent; mean of 3 experiments, error is standard deviation
Method: as §1, §2, §3

[3] = test system: luciferase expression in Neuro2A-G cells (Neuro2A cells stably transfected to express luciferase); experiment: In vitro transfection: luciferase gene silencing by SNALP encapsulating anti-luciferase siRNA; format: cell-based; conditions: for luciferase expression relative to untreated control: after 48 hours
Method: In vitro Transfection: Cells were cultured in MEM (Invitrogen) containing 10% fetal bovine serum (FBS) (CanSera) and 0.25 mg/mL G418 (Invitrogen). Neuro2A-G cells (Neuro2A cells stably transfected to express luciferase [R. E. Kingston. in Current Protocols in Molecular Biology, Vol. 2, pp. 9.1.4-9.1.9, John Wiley & Sons, Inc. (1997)]) were plated at a concentration of 4×10^4 cells per well in 24-well plates and grown overnight. Cells were treated with SNALP at doses of 0.0625-1.0 μg/mL nucleic acid (AntiLuc Active or Mismatch Control) and incubated for 48 hours at 37° C. and 5% CO2. Cells were then washed with PBS and lysed with 200 μL 250 mM sodium phosphate containing 0.1% Triton X-100. The luciferase activity for each well was determined using Luciferase Reagent (Promega) and a standard luciferase protein (Roche). The luminescence for each was measured using a Berthold MicroLumatPlus LB96V plate luminometer. The resulting luciferase activity was then normalized for the amount of protein using the Micro BCA assay kit (Pierce). Luciferase knockdown relative to a control was then determined for each system.
This example describes experiments comparing expression of nucleic acids following in vitro transfection of Neuro2A cells with SNALP comprising: (1) DODAC, DODMA, or DLinDMA; (2) PEG-C-DMA; and (3) an siRNA duplex directed against luciferase encapsulated in the SNALP (i.e., siRNA comprising the following sequence: […] (SEQ ID NO:1) and targeting the DNA sequence complementary to: […] (SEQ ID NO:3)). Neuro2A cells were stably transfected with a plasmid encoding luciferase under the control of the CMV promoter (pLO55). The stably transfected cells were then transfected with SNALP comprising: 15, 20, 25, 30, 35, or 40% of DODAC, DODMA, or DLinDMA; 2% PEG-C-DMA, and an siRNA duplex directed against luciferase encapsulated in the SNALP. Luciferase protein expression was measured 48 hours after transfection with SNALP.
The ability of SNALP containing each of the four cationic lipids (i.e., DSDMA, DODMA, DLinDMA, and DLenDMA) to effect gene silencing in stably transfected Neuro2A cells was evaluated. Neuro2A cells stably transfected to express the luciferase were treated with SNALP containing anti-luciferase siRNA for 48 hours. Gene-silencing efficiency was evaluated by comparing the remaining luciferase activity in these cells to that remaining in cells treated with control SNALP containing mismatch siRNA.

[4] = TNS assay, apparent pKa of cationic lipid incorporated in SNALP; conditions: TNS fluorescence, pH varied from 4.5 to 9.5
Method: TNS Assay: 20 μM of SNALP lipid and 6 μM of TNS were mixed in a fluorescence cuvette in 2 mL of 20 mM sodium phosphate, 25 mM citrate, 20 mM ammonium acetate and 150 mM NaCl, at a pH that was varied from 4.5 to 9.5. Fluorescence was determined at each pH using a Varian Eclipse Spectrofluorometer (Varian Inc) with settings of λex=322 nm, λem=431 nm. Fluorescence for each system at the various pH was then normalized to the value at pH 4.5. The pKa values are the point at which 50% of the molecules present are charged. By assuming that minimum fluorescence represents zero charge, and maximum fluorescence represents 100% charge, pKa can be estimated by measuring the pH at the point exactly half way between the values of minimum and maximum charge.
TNS is electrostatically attracted to positively charged membranes. Subsequent adsorption to the lipid membrane results in the immediate environment of the TNS becoming more lipophilic, removing the water molecules that otherwise quench TNS fluorescence. Since TNS is more readily absorbed by positively charged membranes, TNS fluorescence is an indicator of positive membrane surface charge. The surface pKa values of each SNALP formulation were determined by varying the local pH in the presence of TNS.

[5] = SNALP with anti-luciferase siRNA

| SMILES | % Encapsulation [1] [%] | Diameter (nm) [2] [nm] | Polydispersity [2] | knockdown in gene expression (luciferase) versus control SNALP containing mismatch siRNA ([3]; Neuro2A cells stably expressing luciferase, SNALP with anti-luciferase siRNA, 48 hours) [%] | reduction of luciferase expression compared with SNALP comprising DODAC or DODMA ([3]; SNALP with 30% cationic lipid, 2% PEG-C-DMA, anti-luciferase siRNA, 48 hours after transfection) | luciferase expression relative to untreated control [3, 5] [%] | apparent (surface) pKa of cationic lipid in SNALP [4] |
| --- | --- | --- | --- | --- | --- | --- | --- |
| CCCCC/C=C\C/C=C\CCCCCCCCOCC(CN(C)C)OCCCCCCCC/C=C\C/C=C\CCCCC (centres unmarked) [DLinDMA, 1,2-DiLinoleyloxy-N,N-dimethylaminopropane] | 84 ± 3 | 140 ± 6 | 0.11 ± 0.02 | 80 | more effective in reducing luciferase expression | 21 | – |
| CCCCCCCCCCCCCCCCCC[N+](C)(C)CCCCCCCCCCCCCCCCCC [DODMA, dioctadecyldimethylammonium] | 84 ± 1 | 137 ± 4 | 0.12 ± 0.01 | – | – | 54 | 7.0 |
